Reference: article PMC10709440, “High-throughput ligand profile characterization in novel cell lines expressing seven heterologous insect olfactory receptors for the detection of volatile plant biomarkers” (Scientific Reports, 2023)
Like-named read-outs stand apart in the source and are kept apart here.

Key:
Drosophila OR47a = target: T1, Drosophila OR47a (Drosophila melanogaster, UniProt P81921); test: Calcium ion fluorescence (GCaMP6) assay, OR47a stable HEK293 cell line; type: cell-based; conditions: for Average response / OR47a response (VUAA1-normalized) at 1 μM / OR47a response (VUAA1-normalized) at 10 μM / OR47a response (VUAA1-normalized) at 100 μM: OR47a cell line; for Average response: mean of biological replicates
T1 construct: expressed in transfected cells
T1 sequence (P81921 1-385): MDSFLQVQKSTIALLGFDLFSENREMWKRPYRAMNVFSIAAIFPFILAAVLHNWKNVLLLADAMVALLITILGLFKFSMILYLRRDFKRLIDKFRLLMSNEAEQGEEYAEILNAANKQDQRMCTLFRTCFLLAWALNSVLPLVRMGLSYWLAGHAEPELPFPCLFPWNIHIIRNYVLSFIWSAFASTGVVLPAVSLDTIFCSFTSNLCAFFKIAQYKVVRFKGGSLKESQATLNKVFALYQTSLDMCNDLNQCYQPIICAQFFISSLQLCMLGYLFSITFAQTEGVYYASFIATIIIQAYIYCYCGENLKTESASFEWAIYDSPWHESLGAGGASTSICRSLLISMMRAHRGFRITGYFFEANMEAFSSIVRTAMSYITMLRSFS
T1 sequence (Q9VNB5 1-486 partner): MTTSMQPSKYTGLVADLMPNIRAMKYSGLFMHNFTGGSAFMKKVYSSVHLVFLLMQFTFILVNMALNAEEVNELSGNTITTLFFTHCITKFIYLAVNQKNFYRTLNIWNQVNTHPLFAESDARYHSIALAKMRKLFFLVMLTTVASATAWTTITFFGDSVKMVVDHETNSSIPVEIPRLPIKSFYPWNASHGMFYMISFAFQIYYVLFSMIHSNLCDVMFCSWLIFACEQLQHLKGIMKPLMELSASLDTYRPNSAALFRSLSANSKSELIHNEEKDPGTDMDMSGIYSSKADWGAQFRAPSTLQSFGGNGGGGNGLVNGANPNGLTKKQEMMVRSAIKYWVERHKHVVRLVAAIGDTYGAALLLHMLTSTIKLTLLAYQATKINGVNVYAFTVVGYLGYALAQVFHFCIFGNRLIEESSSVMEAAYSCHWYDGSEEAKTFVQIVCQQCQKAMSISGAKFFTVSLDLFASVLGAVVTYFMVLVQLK
In short: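 Responses are VUAA1-normalized ΔF: each VOC-evoked calcium signal, (FMAX−F0)/F0 over 30 s after injection, divided by the same line's mean 50 µM VUAA1 response. Cells were doxycycline-induced HEK293 with GCaMP6 and the cognate Drosophila OR, in HEPES buffer pH 7.3; ligands tested 0.01–100 μM.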

OR10a = tested on: OR10a; parameters: method as in earlier work; conditions: DoOR database value, ref DoOR, cited from earlier work
OR47a = tested on: OR47a; parameters: method as in earlier work; conditions: DoOR database value, ref DoOR, cited from earlier work
OR49b = tested on: OR49b; parameters: method as in earlier work; conditions: DoOR database value, ref DoOR, cited from earlier work
OR85b = tested on: OR85b; parameters: method as in earlier work; conditions: DoOR database value, ref DoOR, cited from earlier work
OR98a = tested on: OR98a; parameters: method as in earlier work; conditions: DoOR database value, ref DoOR, cited from earlier work
OR13a = tested on: OR13a; parameters: method as in earlier work; conditions: DoOR database value, ref DoOR, cited from earlier work
[1] = HEK293, read-out: OR47a response (VUAA1-normalized response)
[2] = ligand concentration 1 (unit not given), threshold 0.05, below shown as 0
[3] = ligand concentration 10 (unit not given), threshold 0.05, below shown as 0
[4] = ligand concentration 100 (unit not given), threshold 0.05, below shown as 0
[5] = HEK293, read-out: OR47a Average response (VUAA1-normalized)
[6] = concentration 1, normalized fluorescence change, values below 0.05 threshold given as 0
[7] = concentration 10, normalized fluorescence change, values below 0.05 threshold given as 0
[8] = concentration 100, normalized fluorescence change, values below 0.05 threshold given as 0

| Structure (SMILES) | activation at 1 µM (Drosophila OR47a; [1]) | activation at 10 µM (Drosophila OR47a; [1]) | activation at 100 µM (Drosophila OR47a; [1]) | Average response (Drosophila OR47a; odorant cc. 1 µM) | Average response (Drosophila OR47a; odorant cc. 10 µM) | Average response (Drosophila OR47a; odorant cc. 100 µM) | DF norm AVERAGE OR47a (Drosophila OR47a; [2]) | DF norm AVERAGE OR47a (Drosophila OR47a; [3]) | DF norm AVERAGE OR47a (Drosophila OR47a; [4]) | OR10a DoOR response (OR10a) | OR47a DoOR response (OR47a) | OR49b DoOR response (OR49b) | OR85b DoOR response (OR85b) | OR98a DoOR response (OR98a) | DF norm AVERAGE OR47a (Drosophila OR47a; [6]) | DF norm AVERAGE OR47a (Drosophila OR47a; [7]) | DF norm AVERAGE OR47a (Drosophila OR47a; [8]) | other results |
| --- | --- | --- | --- | --- | --- | --- | --- | --- | --- | --- | --- | --- | --- | --- | --- | --- | --- | --- |
| C=C1CCC2CC1C2(C)C (stereo not drawn) [beta-pinene] | 0% | 0% | 0% | 0.00 | 0.00 | 0.00 | 0 | 0 | 0 | -0.005 | -0.021 | 0.011 | 0.053 | -0.003 | – | – | – | – |
| CC/C=C\CCO [E-3-hexenol] | – | – | – | – | – | – | – | – | – | 0.04 | 0.065 | 0.057 | 0.75 | 0.44 | – | – | – | OR47a response (VUAA1-normalized response) (Drosophila OR47a; VOC concentration 1 μM): 0.06; OR47a response (VUAA1-normalized response) (Drosophila OR47a; VOC concentration 10 μM): 0.00; OR47a response (VUAA1-normalized response) (Drosophila OR47a; VOC concentration 100 μM): 0.14 |
| Cc1ccc(C(C)C)cc1 [p-cymene] | – | – | – | 0.00 | 0.00 | 0.00 | 0 | 0 | 0 | – | – | – | – | – | – | – | – | OR47a response (VUAA1-normalized) at 1 μM (Drosophila OR47a; VOC concentration 1 μM): 0.00; OR47a response (VUAA1-normalized) at 10 μM (Drosophila OR47a; VOC concentration 10 μM): 0.00; OR47a response (VUAA1-normalized) at 100 μM (Drosophila OR47a; VOC concentration 100 μM): 0.00; OR10a DoOR response (OR10a; OR10a): -0.003; OR47a DoOR response (OR47a; OR47a): 0.018; OR49b DoOR response (OR49b; OR49b): 0.014; OR85b DoOR response (OR85b; OR85b): -0.004; OR98a DoOR response (OR98a; OR98a): -0.012 |
| CCCCC(C)=O [2-hexanone] | 0% | 0% | 16% | 0.0368 | 0.00 | 0.16 | – | – | – | 0.10 | – | – | – | – | 0 | 0 | 0.1643 | activation at 1 µM (Drosophila OR47a; [5]): 4%; activation at 10 µM (Drosophila OR47a; [5]): 0%; activation at 100 µM (Drosophila OR47a; [5]): 16%; OR13a DoOR response (OR13a): 0.13 |
| CCCCCC(=O)OCC [ethyl hexanoate] | 6.62% | 26% | 67% | 0.0662 | 0.26 | 0.67 | 0.06617 | 0.2596 | 0.6687 | -0.012 | 0.42 | 0.007 | 0.24 | 0.17 | – | – | – | activation at 1 µM (Drosophila OR47a; [5]): 7%; activation at 10 µM (Drosophila OR47a; [5]): 26%; activation at 100 µM (Drosophila OR47a; [5]): 67% |
| CC1=CCC2C(C1)C2(C)C (stereo not shown) [3-carene] | 0% | 0% | 0% | 0.00 | 0.00 | 0.03 | – | – | – | -0.005 | -0.002 | 0.002 | -0.008 | -0.009 | 0 | 0 | 0 | – |
| CC(C)=CCC/C(C)=C/CC/C(C)=C/CO [e,e-farnesol] | – | – | – | 0.03 | 0.00 | 0.032 | 0 | 0 | 0 | 0.014 | – | – | – | – | – | – | – | OR47a response (VUAA1-normalized response) (Drosophila OR47a; VOC concentration 1 μM): 0.00; OR47a response (VUAA1-normalized response) (Drosophila OR47a; VOC concentration 10 μM): 0.00; OR47a response (VUAA1-normalized response) (Drosophila OR47a; VOC concentration 100 μM): 0.00; OR13a DoOR response (OR13a): 0.075 |
| C=C(C)[C@H]1CC=C(C)CC1 [limonene] | – | – | – | 0.0214 | 0.00 | 0.00 | 0 | 0 | 0 | -0.001 | 0.056 | 0.016 | 0.10 | 0.09 | – | – | – | OR47a response (VUAA1-normalized response) (Drosophila OR47a; VOC concentration 1 μM): 0.00; OR47a response (VUAA1-normalized response) (Drosophila OR47a; VOC concentration 10 μM): 0.00; OR47a response (VUAA1-normalized response) (Drosophila OR47a; VOC concentration 100 μM): 0.00 |
| CCCCCO [1-pentanol] | 0% | 0% | 0% | 0.00 | 0.00 | 0.00 | – | – | – | 0.034 | 0.17 | 0.09 | 0.51 | 0.23 | 0 | 0 | 0 | – |
| CCCCCC(C)O (stereo not shown) [2-heptanol] | 0% | 6% | 0% | 0.00 | 0.06 | 0.00 | – | – | – | 0.009 | – | – | – | – | 0 | 0.05999 | 0 | OR13a DoOR response (OR13a): 0.67 |
| CC/C=C\CCOC(C)=O [Z-3-hexenyl acetate] | – | – | – | – | – | – | – | – | – | – | – | – | – | – | – | – | – | OR47a response (VUAA1-normalized) at 1 μM (Drosophila OR47a; VOC concentration 1 μM): 0.35; OR47a response (VUAA1-normalized) at 10 μM (Drosophila OR47a; VOC concentration 10 μM): 0.67; OR47a response (VUAA1-normalized) at 100 μM (Drosophila OR47a; VOC concentration 100 μM): 0.76; OR10a DoOR response (OR10a; OR10a): 0.004; OR13a DoOR response (OR13a; OR13a): 0.42 |
| CC(=O)OCC(C)C [isobutyl acetate] | 19% | 15% | 65% | 0.19 | 0.15 | 0.65 | 0.1884 | 0.1518 | 0.646 | 0.35 | 0.58 | 0.006 | 0.39 | 0.67 | – | – | – | activation at 1 µM (Drosophila OR47a; [5]): 19%; activation at 10 µM (Drosophila OR47a; [5]): 15%; activation at 100 µM (Drosophila OR47a; [5]): 65% |
| COC(=O)c1ccccc1 [methyl benzoate] | – | – | – | 0.0138 | 0.00 | 0.06 | 0 | 0 | 0.05948 | – | – | – | – | – | – | – | – | OR47a response (VUAA1-normalized) at 1 μM (Drosophila OR47a; VOC concentration 1 μM): 0.00; OR47a response (VUAA1-normalized) at 10 μM (Drosophila OR47a; VOC concentration 10 μM): 0.00; OR47a response (VUAA1-normalized) at 100 μM (Drosophila OR47a; VOC concentration 100 μM): 0.06; OR10a DoOR response (OR10a; OR10a): 0.63; OR47a DoOR response (OR47a; OR47a): 0.09; OR49b DoOR response (OR49b; OR49b): 0.035; OR85b DoOR response (OR85b; OR85b): 0.036; OR98a DoOR response (OR98a; OR98a): 0.70 |
| CCCCC(C)O (stereo not shown) [2-hexanol] | 0% | 0% | 5% | 0.04 | 0.00 | 0.05 | – | – | – | 0.14 | – | – | – | – | 0 | 0 | 0.05091 | OR13a DoOR response (OR13a): 0.58 |
